Laboratory results published in ChEMBL document CHEMBL4507319 (2021).

What was measured:
[1] = molecular target: Ephrin type-A receptor 7 (Homo sapiens) (UniProt Q15375); assay: EphA7(h) Eurofins kinase panel; settings: Compound concentration 1.0 uM
[2] = tested on: LNCaP; assay: LNCaP cell line Proliferation assay; format: functional, Homo sapiens; settings: time 6 day
[3] = molecular target: T1, Rhodopsin kinase GRK1 (Homo sapiens) (UniProt Q15835); assay: GRK1(h) Eurofins kinase panel; settings: Compound concentration 1.0 uM
T1 sequence (whole entry): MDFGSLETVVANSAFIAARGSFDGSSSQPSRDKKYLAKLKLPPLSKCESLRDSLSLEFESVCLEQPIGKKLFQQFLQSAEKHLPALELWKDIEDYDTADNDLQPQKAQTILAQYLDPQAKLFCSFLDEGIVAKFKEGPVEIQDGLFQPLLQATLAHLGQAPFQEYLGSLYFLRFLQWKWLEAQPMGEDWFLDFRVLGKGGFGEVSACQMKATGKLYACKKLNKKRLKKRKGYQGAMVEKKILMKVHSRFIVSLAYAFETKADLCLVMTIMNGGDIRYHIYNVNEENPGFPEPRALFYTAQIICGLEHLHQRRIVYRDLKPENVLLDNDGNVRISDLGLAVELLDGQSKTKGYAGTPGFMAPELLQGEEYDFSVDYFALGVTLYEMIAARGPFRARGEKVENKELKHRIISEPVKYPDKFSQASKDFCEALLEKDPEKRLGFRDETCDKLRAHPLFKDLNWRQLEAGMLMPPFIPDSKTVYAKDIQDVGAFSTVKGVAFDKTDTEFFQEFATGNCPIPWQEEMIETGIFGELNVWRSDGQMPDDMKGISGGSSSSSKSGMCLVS

[4] = molecular target: T2, Tyrosine-protein kinase receptor TYRO3 (Homo sapiens) (UniProt Q06418); assay: Rse(h) Eurofins kinase panel; settings: Compound concentration 1.0 uM
T2 sequence (whole entry): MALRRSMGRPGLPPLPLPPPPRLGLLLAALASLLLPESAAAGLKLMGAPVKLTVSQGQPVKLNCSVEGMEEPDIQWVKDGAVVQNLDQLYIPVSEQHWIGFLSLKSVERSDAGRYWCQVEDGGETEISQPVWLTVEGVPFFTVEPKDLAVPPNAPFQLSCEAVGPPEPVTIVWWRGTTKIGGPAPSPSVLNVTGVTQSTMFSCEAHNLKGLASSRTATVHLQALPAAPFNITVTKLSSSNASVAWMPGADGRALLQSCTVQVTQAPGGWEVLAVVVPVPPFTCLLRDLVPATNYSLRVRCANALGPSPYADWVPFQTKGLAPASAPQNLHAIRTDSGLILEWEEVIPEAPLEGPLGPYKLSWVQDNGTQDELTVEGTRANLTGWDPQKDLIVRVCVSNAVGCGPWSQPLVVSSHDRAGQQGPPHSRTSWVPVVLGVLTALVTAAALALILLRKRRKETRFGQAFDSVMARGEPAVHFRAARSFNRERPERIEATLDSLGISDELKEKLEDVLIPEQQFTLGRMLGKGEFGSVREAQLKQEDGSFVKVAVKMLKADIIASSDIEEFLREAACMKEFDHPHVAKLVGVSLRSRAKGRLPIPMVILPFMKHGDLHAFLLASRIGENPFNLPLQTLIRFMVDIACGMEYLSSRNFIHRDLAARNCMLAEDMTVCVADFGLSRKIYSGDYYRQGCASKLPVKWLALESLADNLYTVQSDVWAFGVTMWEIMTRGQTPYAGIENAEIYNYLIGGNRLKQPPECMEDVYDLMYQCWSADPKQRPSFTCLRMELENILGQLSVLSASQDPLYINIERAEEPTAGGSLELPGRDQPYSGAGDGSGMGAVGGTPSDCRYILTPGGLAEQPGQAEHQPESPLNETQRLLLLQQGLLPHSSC

[5] = molecular target: Tau-tubulin kinase 1 (Homo sapiens) (UniProt Q5TCY1); assay: TTBK1(h) Eurofins kinase panel; settings: Compound concentration 1.0 uM
Chain of Tau-tubulin kinase 1 (Homo sapiens) (Q5TCY1 whole entry): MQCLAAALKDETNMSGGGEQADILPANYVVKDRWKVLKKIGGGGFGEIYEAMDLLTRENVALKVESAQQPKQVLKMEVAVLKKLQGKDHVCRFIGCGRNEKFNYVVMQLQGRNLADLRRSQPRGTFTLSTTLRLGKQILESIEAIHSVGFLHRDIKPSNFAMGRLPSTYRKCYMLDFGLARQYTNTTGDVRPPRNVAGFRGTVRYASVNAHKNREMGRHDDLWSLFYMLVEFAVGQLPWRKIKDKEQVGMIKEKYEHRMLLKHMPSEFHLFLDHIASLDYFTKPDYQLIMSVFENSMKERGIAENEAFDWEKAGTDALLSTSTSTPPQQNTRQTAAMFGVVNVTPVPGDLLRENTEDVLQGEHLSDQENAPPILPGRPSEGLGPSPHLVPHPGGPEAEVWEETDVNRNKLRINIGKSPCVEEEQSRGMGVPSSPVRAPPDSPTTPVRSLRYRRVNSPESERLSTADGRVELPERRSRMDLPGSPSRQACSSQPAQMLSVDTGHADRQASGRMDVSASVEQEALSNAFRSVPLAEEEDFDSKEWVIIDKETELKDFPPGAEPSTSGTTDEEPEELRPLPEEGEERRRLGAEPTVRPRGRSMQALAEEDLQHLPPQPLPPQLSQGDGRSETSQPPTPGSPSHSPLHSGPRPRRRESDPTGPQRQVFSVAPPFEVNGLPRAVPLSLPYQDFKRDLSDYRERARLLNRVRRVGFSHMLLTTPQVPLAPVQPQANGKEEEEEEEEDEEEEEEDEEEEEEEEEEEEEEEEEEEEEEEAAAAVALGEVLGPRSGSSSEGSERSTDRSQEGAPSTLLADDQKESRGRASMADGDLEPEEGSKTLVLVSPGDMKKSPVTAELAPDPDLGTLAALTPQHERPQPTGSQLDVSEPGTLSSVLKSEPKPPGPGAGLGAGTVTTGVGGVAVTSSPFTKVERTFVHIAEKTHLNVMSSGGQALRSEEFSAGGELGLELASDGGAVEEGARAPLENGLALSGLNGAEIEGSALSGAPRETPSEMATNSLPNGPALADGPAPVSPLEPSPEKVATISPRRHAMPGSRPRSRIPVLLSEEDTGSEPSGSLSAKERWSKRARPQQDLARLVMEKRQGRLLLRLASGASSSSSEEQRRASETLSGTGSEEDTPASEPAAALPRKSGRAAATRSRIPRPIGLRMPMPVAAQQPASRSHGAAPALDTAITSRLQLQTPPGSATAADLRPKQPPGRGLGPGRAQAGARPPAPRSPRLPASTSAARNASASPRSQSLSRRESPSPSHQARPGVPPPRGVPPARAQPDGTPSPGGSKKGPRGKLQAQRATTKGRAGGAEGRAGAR

[6] = molecular target: Ephrin type-A receptor 5 (Homo sapiens) (UniProt P54756); assay: EphA5(h) Eurofins kinase panel; settings: Compound concentration 1.0 uM
[7] = molecular target: T3, Muscle, skeletal receptor tyrosine-protein kinase (Homo sapiens) (UniProt O15146); assay: MuSK(h) Eurofins kinase panel; settings: Compound concentration 1.0 uM
T3 sequence (whole entry): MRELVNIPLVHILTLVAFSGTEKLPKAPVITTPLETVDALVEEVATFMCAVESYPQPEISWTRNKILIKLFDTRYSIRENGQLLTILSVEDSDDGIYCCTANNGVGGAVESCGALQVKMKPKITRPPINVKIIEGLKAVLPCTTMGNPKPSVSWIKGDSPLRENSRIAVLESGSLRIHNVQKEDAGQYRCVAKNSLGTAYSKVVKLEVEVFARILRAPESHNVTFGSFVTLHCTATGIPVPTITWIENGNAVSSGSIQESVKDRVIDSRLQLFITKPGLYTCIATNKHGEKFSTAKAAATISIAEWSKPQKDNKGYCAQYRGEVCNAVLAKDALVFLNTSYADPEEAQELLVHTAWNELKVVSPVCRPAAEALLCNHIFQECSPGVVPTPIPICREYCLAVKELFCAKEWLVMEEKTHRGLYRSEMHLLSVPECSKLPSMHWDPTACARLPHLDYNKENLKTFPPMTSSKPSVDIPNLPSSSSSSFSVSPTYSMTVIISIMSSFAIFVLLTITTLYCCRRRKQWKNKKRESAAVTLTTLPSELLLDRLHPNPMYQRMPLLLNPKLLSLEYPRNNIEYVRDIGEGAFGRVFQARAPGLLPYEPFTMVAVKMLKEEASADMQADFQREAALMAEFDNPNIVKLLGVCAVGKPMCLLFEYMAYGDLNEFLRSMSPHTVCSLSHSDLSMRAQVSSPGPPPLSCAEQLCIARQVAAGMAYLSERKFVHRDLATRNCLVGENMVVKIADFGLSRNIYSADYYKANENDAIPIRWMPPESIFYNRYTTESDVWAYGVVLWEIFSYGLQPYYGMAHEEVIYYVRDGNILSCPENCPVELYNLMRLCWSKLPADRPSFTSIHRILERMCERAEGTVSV

[8] = molecular target: Maternal embryonic leucine zipper kinase (Homo sapiens) (UniProt Q14680); assay: MELK(h) Eurofins kinase panel; settings: Compound concentration 1.0 uM
[9] = tested on: OPM-2; assay: OPM-2 cell line Proliferation assay; format: functional, Homo sapiens; settings: time 3 day
[10] = molecular target: PI3-kinase p110-alpha/p85-alpha (Homo sapiens) (UniProt P27986+P42336); assay: PI3 Kinase(p110a/p85a)(h) Eurofins kinase panel; format: protein-complex assay; settings: Compound concentration 1.0 uM
[11] = molecular target: Wee1-like protein kinase (Homo sapiens) (UniProt P30291); assay: Wee1(h) Eurofins kinase panel; settings: Compound concentration 1.0 uM
[12] = molecular target: Serine/threonine-protein kinase PAK 5 (Homo sapiens) (UniProt Q9P286); assay: PAK5(h) Eurofins kinase panel; settings: Compound concentration 1.0 uM
Chain of Serine/threonine-protein kinase PAK 5 (Homo sapiens) (Q9P286 whole entry, looked up): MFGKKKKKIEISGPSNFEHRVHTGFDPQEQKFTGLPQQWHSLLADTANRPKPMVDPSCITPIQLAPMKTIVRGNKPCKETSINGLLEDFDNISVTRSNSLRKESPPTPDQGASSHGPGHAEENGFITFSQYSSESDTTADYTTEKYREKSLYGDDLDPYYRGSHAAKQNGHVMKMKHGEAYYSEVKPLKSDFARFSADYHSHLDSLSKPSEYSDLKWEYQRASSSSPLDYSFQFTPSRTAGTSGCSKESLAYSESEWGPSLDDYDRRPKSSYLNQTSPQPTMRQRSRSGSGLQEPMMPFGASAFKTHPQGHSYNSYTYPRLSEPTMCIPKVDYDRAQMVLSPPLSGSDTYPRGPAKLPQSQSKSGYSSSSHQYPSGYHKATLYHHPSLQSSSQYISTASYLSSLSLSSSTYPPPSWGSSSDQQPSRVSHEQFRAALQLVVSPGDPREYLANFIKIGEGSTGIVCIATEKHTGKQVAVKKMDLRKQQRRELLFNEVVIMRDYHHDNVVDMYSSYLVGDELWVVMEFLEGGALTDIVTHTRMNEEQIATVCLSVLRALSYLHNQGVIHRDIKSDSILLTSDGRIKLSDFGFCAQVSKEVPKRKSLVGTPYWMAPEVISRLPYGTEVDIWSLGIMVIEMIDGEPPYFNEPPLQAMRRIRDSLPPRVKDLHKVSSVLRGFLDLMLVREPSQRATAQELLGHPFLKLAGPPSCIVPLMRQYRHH

[13] = molecular target: Bone morphogenetic protein receptor type-1B (Homo sapiens) (UniProt O00238); assay: ALK6(h) Eurofins kinase panel; settings: Compound concentration 1.0 uM
Chain of Bone morphogenetic protein receptor type-1B (Homo sapiens) (O00238 whole entry): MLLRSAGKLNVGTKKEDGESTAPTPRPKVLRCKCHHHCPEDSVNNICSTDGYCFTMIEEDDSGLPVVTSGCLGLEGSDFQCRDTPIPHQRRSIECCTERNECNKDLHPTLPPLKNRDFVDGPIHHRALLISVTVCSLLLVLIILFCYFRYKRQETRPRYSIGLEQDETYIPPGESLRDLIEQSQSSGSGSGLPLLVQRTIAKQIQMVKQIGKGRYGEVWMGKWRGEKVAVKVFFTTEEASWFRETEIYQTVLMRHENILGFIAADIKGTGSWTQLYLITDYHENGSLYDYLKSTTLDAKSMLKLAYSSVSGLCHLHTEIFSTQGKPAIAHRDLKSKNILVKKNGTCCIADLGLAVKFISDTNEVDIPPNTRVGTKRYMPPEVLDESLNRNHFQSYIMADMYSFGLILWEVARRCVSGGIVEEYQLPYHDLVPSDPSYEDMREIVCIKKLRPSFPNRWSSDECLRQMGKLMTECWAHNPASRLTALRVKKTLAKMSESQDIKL

[14] = molecular target: Leucine-rich repeat serine/threonine-protein kinase 2 (Homo sapiens) (UniProt Q5S007); assay: LRRK2(h) Eurofins kinase panel; settings: Compound concentration 1.0 uM
Chain of Leucine-rich repeat serine/threonine-protein kinase 2 (Homo sapiens) (Q5S007 whole entry): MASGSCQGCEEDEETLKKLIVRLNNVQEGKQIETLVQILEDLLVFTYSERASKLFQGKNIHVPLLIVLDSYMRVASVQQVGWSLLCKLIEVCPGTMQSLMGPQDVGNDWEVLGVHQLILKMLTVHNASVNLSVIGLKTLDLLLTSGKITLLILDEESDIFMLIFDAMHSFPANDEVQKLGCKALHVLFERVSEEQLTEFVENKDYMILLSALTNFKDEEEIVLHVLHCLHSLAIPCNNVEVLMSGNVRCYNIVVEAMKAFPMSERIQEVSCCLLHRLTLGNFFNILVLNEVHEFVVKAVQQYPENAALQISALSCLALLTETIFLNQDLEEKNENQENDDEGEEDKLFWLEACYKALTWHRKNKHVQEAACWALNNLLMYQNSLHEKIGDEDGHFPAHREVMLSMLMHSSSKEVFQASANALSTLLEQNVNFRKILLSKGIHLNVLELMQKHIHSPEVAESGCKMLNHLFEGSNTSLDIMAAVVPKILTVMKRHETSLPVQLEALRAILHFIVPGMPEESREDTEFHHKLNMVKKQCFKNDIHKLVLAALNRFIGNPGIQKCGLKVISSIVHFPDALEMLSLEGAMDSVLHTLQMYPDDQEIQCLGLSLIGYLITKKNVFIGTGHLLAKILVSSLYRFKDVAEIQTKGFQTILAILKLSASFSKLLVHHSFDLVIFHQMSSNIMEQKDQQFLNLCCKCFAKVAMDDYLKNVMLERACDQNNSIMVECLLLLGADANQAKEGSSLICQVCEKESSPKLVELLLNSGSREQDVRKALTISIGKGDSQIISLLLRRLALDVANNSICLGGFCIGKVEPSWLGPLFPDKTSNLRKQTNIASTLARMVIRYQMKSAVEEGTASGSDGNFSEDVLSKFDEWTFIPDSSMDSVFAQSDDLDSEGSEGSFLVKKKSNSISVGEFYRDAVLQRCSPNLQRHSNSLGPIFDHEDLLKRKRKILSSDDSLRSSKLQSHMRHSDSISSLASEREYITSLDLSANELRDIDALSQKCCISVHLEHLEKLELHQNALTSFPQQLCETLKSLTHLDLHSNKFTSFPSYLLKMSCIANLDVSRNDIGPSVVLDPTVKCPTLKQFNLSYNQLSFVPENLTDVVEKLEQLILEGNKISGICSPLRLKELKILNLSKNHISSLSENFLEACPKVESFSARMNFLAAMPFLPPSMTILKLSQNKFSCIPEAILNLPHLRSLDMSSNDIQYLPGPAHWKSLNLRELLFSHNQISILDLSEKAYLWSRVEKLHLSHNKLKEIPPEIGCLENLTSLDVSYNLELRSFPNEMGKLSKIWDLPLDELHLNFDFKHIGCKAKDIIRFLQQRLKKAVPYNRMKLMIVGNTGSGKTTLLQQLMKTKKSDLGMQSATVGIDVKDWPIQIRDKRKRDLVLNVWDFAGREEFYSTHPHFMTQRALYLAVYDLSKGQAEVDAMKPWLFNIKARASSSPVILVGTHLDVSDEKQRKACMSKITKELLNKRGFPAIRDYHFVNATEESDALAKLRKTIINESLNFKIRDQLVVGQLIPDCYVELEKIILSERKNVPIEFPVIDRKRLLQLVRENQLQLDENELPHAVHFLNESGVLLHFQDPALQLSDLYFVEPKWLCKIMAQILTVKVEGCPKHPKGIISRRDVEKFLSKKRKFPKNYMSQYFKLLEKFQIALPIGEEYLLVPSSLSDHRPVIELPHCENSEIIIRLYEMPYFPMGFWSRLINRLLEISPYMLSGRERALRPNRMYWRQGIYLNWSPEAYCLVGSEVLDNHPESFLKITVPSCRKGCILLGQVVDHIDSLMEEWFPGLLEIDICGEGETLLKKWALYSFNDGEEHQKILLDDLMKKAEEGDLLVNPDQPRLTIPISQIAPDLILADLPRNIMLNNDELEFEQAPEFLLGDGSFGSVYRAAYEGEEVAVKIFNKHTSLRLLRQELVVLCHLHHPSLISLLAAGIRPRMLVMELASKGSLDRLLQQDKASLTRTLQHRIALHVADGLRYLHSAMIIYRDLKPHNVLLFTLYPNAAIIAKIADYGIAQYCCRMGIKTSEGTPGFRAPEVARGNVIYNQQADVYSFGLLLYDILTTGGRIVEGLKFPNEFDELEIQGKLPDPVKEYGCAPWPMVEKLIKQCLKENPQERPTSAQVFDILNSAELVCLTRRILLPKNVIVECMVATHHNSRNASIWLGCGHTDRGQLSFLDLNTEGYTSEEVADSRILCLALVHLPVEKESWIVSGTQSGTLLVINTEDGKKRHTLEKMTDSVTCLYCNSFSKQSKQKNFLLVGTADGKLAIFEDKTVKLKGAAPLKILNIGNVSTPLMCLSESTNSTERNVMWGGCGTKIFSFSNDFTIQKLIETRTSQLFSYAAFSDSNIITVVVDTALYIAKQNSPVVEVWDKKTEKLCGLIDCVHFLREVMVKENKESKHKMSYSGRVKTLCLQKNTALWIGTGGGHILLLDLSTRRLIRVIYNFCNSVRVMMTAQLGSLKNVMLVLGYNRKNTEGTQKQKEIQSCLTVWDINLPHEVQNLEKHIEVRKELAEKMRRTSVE

[15] = molecular target: STE20-like serine/threonine-protein kinase (Homo sapiens) (UniProt Q9H2G2); assay: SLK(h) Eurofins kinase panel; settings: Compound concentration 1.0 uM
[16] = molecular target: PI3K p110 beta/p85 alpha (Homo sapiens) (UniProt P27986+P42338); assay: PI3 Kinase(p110b/p85a)(h) Eurofins kinase panel; format: protein-complex assay; settings: Compound concentration 1.0 uM

CCc1ccccc1C(=O)Nc1n[nH]c2c(C)c(F)c(C3C(C#N)=C(C)N(C)C(C)=C3C#N)cc12 [BAY-3827]
% residual kinase activity [1]: 91% | Cell Proliferation IC50 [2]: 0.28 µM | % residual kinase activity [3]: 72% | % residual kinase activity [4]: 105% | % residual kinase activity [5]: 104% | % residual kinase activity [6]: 89% | % residual kinase activity [7]: 91% | % residual kinase activity [8]: 39% | Cell Proliferation IC50 [9]: 1.5 µM | % residual kinase activity [10]: 99% | % residual kinase activity [11]: 96% | % residual kinase activity [12]: 86% | % residual kinase activity [13]: 99% | % residual kinase activity [14]: 95% | % residual kinase activity [15]: 101% | % residual kinase activity [16]: 99%
